Measured values taken from patent US10233205B2, “Magnetic resonance imaging contrast agent capable of detecting hydrogen peroxide and reducing reactive oxygen species” (Auburn University, priority 2015, dated 2019).
“And” between values parts separate entries of the source, which are not always exact repeats. Equal values may be shown once. “Also recorded” adds a separate entry of the source.

Experiments:
[1] = DPPH free radical scavenging assay; assay type: biochemical; conditions: Example 1
Protocol: An alternative assessment of the Mn(II) complexes' anti-oxidant properties relied upon the DPPH assay. Aqueous solutions of either 1, 2, or ascorbic acid were added to a solution of 0.10 mM DPPH in MeOH, such that the final reaction volume was 0.2 mL. Samples were incubated in the dark for 30 min at room temperature. Spectrophotometric measurements were subsequently performed at 517 nm using a Molecular Devices Spectramax Plus. This wavelength corresponds to the λmax of the reduced product. Experiments were performed in triplicate and repeated twice.
The anti-oxidant properties of 1 and 2 were also assessed using the DPPH assay (DPPH=2,2-diphenyl-1-picrylhydrazyl radical hydrate), which evaluates the ability of a compound to donate hydrogen atoms to DPPH to yield the corresponding hydrazine. The anti-oxidants were added to DPPH and incubated in the dark for 30 min at room temperature. Spectroscopic measurements were performed at 517 nm. The data were normalized to the absorbance in the presence of vehicle. All experiments were performed in triplicate and repeated twice.
Complex 3 is also a competent […] as assessed by the DPPH assay (FIG. 33), which tests the abilities of compounds to donate hydrogen atoms to 2,2-diphenyl-1-picrylhydrazyl radical hydrate. […] The data were normalized to the absorbance in the presence of vehicle. […] The hydrazine product is monitored by UV/vis.

[2] = system: H9c2 cells; test: Cytotoxicity, CyQUANT cell number; assay type: cell-based; design: dose tolerated by H9c2 cells: unit not given here
Protocol: H9c2 cells were obtained from the American Tissue Type Collection (Manassas, Va., USA) and grown at 37° C. with 95% humidity and 5% CO2. Cells were grown in Dulbecco's modified eagles medium (DMEM) supplemented with 10% fetal bovine serum. Experiments were performed at 70-80% confluence. All experiments were performed in DMEM in the absence of fetal bovine serum. To determine the cytotoxic effects of 1 and 2, the H9c2 cells were exposed to increasing concentrations of these reagents or their vehicle in DMEM for either 4 or 24 h. The cell number was assessed using the CyQUANT Cell Proliferation Assay Kit (Life Technologies Corporation, Carlsbad, Calif.) per manufacturer's instructions. Cell number was expressed as a percentage of that measured for the vehicle-treated cells. Values are expressed as mean and SEM and represent three experiments performed in triplicate.
The toxicity of 3 was tested using H9c2 cells in order to facilitate comparison to that of 1. H9c2 cells were obtained from the American Tissue Type Collection (Manassas, Va., USA) and grown at 37° C. with 95% humidity and 5% CO2. Cells were grown in Dulbecco's modified eagles medium (DMEM) supplemented with 10% fetal bovine serum. Experiments were performed at 70-80% confluence. To determine the cytotoxic effects of 3, H9c2 cells were exposed to increasing concentrations of 3 ([…]) or its vehicle in DMEM for 4 or 24 hr. Cell number was assessed using the CyQUANT Cell Proliferation Assay Kit (Life Technologies Corporation, Carlsbad, Calif.) per manufacturer's instructions. Cell number was expressed as percentage of the vehicle-treated cells. Values are expressed as mean and standard deviation and represent 2-4 experiments performed in triplicate. The bars marked with an * display a significant difference from the vehicle-treated cell number for corresponding time period (p<0.05).

[3] = Cyclic voltammetry; assay type: physicochemical; conditions: for ΔE, separation between anodic and cathodic peaks: ligand redox feature
Protocol: All ^1H and ^13C NMR spectra were recorded on a 400 MHz AV Bruker NMR spectrometer; all reported resonances were referenced to internal standards. Electron paramagnetic resonance (EPR) spectra were collected using a Bruker EMX-6/1 X-band EPR spectrometer operated in the perpendicular mode. The acquired data were analyzed with the program EasySpin. Each sample was run as a frozen solution in a quartz tube. High-resolution mass spectrometry (HR-MS) data were obtained at the Mass Spectrometer Center at Auburn University on a Bruker microflex LT MALDI-TOF mass spectrometer via direct probe analysis operated in the positive ion mode. IR data were collected using a Shimadzu IR Prestige-21 FT-IR spectrophotometer. A Johnson Matthey magnetic susceptibility balance (model MK I#7967) was used to measure the magnetic properties of the Mn(II) complex with H2qtp1; the reported eff value was the average of those measured for two independently prepared solid samples. Atlantic Microlabs (Norcross, Ga.) performed the elemental analyses (C, H, N). All samples submitted for elemental analysis were crystallized and dried under vacuum prior to their shipment. All cyclic voltammetry was performed under N2 at 294 K using an Epsilon electrochemistry workstation (Bioanalytical System, Inc.), a gold working electrode, a platinum wire auxiliary electrode, and a Ag/AgCl reference electrode.
Complex 3 was studied by cyclic voltammetry (CV) in water containing 50 mM phosphate to buffer the solution to pH 7.2. A redox feature with E1/2 of 60 mV vs. Ag/AgCl (295 mV vs. NHE) is observed (FIG. 22).
Similar redox processes were found for both 1 and a Zn(II)-H2qtp1 complex, leading us to assign the 60 mV redox event to the oxidation of the ligand, rather than the manganese. The separation between the anodic and cathodic peaks (ΔE) for this feature is 230 mV; this is much less reversible than its analog in the CV of 1 (75 mV). A second and entirely irreversible redox event at 725 mV (960 mV vs NHE) is tentatively assigned to the oxidation of Mn(II) to Mn(III). For this analysis, the scan rate was 100 mV/s. For the quasi-reversible feature: E1/2=57 mV vs. Ag/AgCl, ΔE=232 mV. An irreversible feature with Epc=725 mV is also observed.

[4] = Stability in aerobic solution / to pH; assay type: physicochemical
Protocol: Over this time, collected UV/vis spectra (FIGS. 2 & 3) display changes in the region between 200 nm and 300 nm which are consistent with the oxidation of the quinol to a para-quinone. Past 24 h, the solution begins to turn brown, consistent with oxidation of the manganese to Mn(III) and/or Mn(IV). For the spectrophotometric analysis, the Fe(ClO4)2 solution was added to a MeCN solution containing 0.10 mM [Mn(Hptp1)(MeCN)]^2+; the mixture was scanned at 0 min (dashed red), 30 min (dashed pink), and 60 min (dashed blue). […] At 15 h, approximately 11% of the Mn(II) has been displaced by Fe(II) as indicated by data in FIG. 3.
The stability of 3 to air and adventitious metal ions was assessed primarily by UV/vis spectroscopy. […] Complex 3, however, is susceptible to metal exchange. When equimolar amounts of 3 and Fe(ClO4)2 are mixed in MeCN, 80% of the Mn(II) is replaced by Fe(II) by 3 h.

[5] = Potentiometric pH titrations, Hyperquad model
From the text: The speciation in water was more rigorously probed with potentiometric pH titrations. […] The quinolic protons likely deprotonate at higher pH values (pKa˜10), but we were unable to obtain the high pH data necessary to confirm this.
The data were fit to a model containing the protonated forms of the free ligand and four Mn(II) complexes with the ligand in various protonation states: [Mn(H2qtp2)], [Mn(H3qtp2)]^+, [Mn(H4qtp2)]^2+, and [Mn(H4qtp2)]^3+ (Scheme 4).

Row | Compound | DPPH reduction [1] | dose tolerated by H9c2 cells ([2]; 4 h) | ΔE, separation between anodic and cathodic peaks [3] | E1/2 vs. NHE ([3]; phosphate buffer pH 7.2, ligand feature) | H9c2 cells surviving ([2]; 10 μM, 24 h) | concentration without cell death / within error of control ([2]; 4 h) [µM] | concentration without impact on H9c2 viability ([2]; 24 h) [µM] | dose tolerated by H9c2 cells ([2]; 24 h) | stability in aerobic solution [4] | percentage of free Mn(II) ([5]; pH 7.0) [%] | manganese bound by some form of the ligand ([5]; pH 7.4) | E1/2 vs. Ag/AgCl ([3]; phosphate buffer pH 7.2, quasi-reversible ligand feature) | irreversible redox event (Epc) vs. Ag/AgCl ([3]; tentatively Mn(II) to Mn(III)) [mV] | irreversible redox event vs NHE ([3]; tentatively Mn(II) to Mn(III)) [mV] | error introduced by air oxidation ([4]; aerated MeOH, 4 h) [%] | decrease in intensity of 302 nm quinol feature ([4]; aerated MeOH, 12 h)
1 | CC#N.Cc1ccc(O)c(CN(CCN(Cc2ccccn2)Cc2ccccn2)Cc2ccccn2)c1.[Mn+2].[O-][Cl+3]([O-])([O-])[O-].[O-][Cl+3]([O-])([O-])[O-] [Complex 2, reference compound] | fails to reduce DPPH to a noticeable degree | 10 | – | – | – | – | – | – | – | – | – | – | – | – | – | –
2 | CC#N.O=S(=O)([O-])C(F)(F)F.O=S(=O)([O-])C(F)(F)F.[Mn+2].[O-]c1ccc(O)cc1CN(CCN(Cc1ccccn1)Cc1ccccn1)Cc1ccccn1 [Complex 1, Acetonitrilo(N-(2,5-dihydroxy-benzyl)-N,N′,N′-tris(2-pyridinylmethyl)-1,2-ethanediamine)manganese(II) triflate] | – | 10 | 75 mV | about 300 mV | less than 50% | 10 | 1.0 | 1.0 | sufficiently stable in aerobic water solutions; also recorded: slightly sensitive towards oxygen | – | – | – | – | – | – | –
3 | cis-Dibromo(N,N′-bis(2,5-dihydroxybenzyl)-N,N′-bis(2-pyridinylmethyl)-1,2-ethanediamine)manganese(II) [Complex 3] | – | – | 230 mV and 232 mV | – | – | 50 | 10 | – | moderately stable in aerobic aqueous solutions above pH 7.0 | 1.4 | Over 99% | 60 mV and 57 mV | 725 | 960 | < 5 | about 10%
